Measured values from patent US9622429B2, “Method for increasing plant biomass” (BioMass Booster, S.L., priority 2010, dated 2017).

How the values were obtained:
Assay type in all cases: cell-based
[1] = system: Carrot (Daucus carota) calli; assay: Callus growth (biomass increase) on medium containing adrenomedullin, carrot
From the text: (§1) Carrot (Daucus carota) and tobacco (Nicotiana tabacum) calli were supplied by Carolina Biological Supply Company (Burlington, N.C., USA) and kept under sterile conditions in solid callus initiation medium for carrots or for tobacco respectively (also acquired from Carolina Biological). The specific composition thereof is available in the company's catalog. A single callus was split into small fragments and these fragments were weighed under sterile conditions and seeded on fresh medium (solid callus initiation medium acquired from Carolina Biologicals) which contained different concentrations of the synthetic peptide human adrenomedullin (AM) (Phoenix Pharmaceuticals, Burlingame, Calif., USA). After 30 days of growth in the dark, the calli were weighed again and the growth rate was calculated as the quotient of the final weight divided by the initial weight. The dry weight of each sample was calculated by subjecting the calli to an oven drying process at […] for 24 hours.

[2] = system: tobacco (Nicotiana tabacum) calli; assay: Callus growth (biomass increase) on medium containing adrenomedullin, tobacco
From the text: as §1

[3] = system: Chlorella; assay: Microalgae growth in culture, absorbance at 680 nm; conditions: final concentration of 10^−8 M AM, Guillard F/2 medium, 5% CO2, 12 hours light/12 hours dark
Description: Two identical cultures of Chlorella in Guillard F/2 medium [Guillard, R. R. L. 1975. Culture of phytoplankton for feeding marine invertebrates. pp 26-60. In Smith W. L. and Chanley M. H (Eds.) Culture of Marine Invertebrate Animals. Plenum Press, New York, USA.; Guillard, R. R. L. and Ryther, J. H. 1962. Studies of marine planktonic diatoms. I. Cyclotella nana Hustedt and Detonula confervacea Cleve. Can. J. Microbiol. 8: 229-239] (250 ml each) were prepared in two separate glass flasks. Then, 100 μl of said Guillard F/2 medium were added to a flask and 100 μl of said Guillard F/2 medium containing the synthetic peptide human adrenomedullin (AM) (Phoenix Pharmaceuticals, Burlingame, Calif., USA) in a sufficient amount to achieve a final concentration of 10^−8 M to the other flask.
Air containing 5% CO2 was continuously bubbled in the culture. The flasks were illuminated with a photoperiod of 12 hours light/12 hours dark.
Aliquots from the medium were periodically collected in order to assess the microalgae growth. Absorbance was measured at 680 nm with a Perkin Elmer Lambda 35 UV/Visible spectrofotometer.

[4] = different concentrations of AM, 30 days of growth in the dark
[5] = oven drying at 250° C. for 24 hours

## human adrenomedullin [AM]
[1]; 30 days of growth in the dark
  most effective concentration of AM for stimulating cell growth: 10^−10 M
[1]; [4]
  growth of the calli (growth rate = final weight / initial weight): growth increase in the calli following a dose-dependent response
[1]; optimal dose of AM, 30 days
  increase in the biomass when compared with the control: 60%
[1]; [5]
  dry weight of the tissue: differences were maintained
[2]; 30 days of growth in the dark
  most effective concentration of AM for stimulating cell growth: 10^−10 M
[2]; [4]
  growth of the calli (growth rate = final weight / initial weight): growth increase in the calli following a dose-dependent response
[2]; optimal dose of AM, 30 days
  increase in the biomass when compared with the control: 60%
[2]; [5]
  dry weight of the tissue: differences were maintained
[3]
  microalgae growth (absorbance at 680 nm): grow up faster and reach the stationary phase sooner than the non-treated microalgae
